# Results reported in ChEMBL document CHEMBL1123917, “Antiulcer agents. 3. Structure-activity-toxicity relationships of substituted imidazo[1,2-a]pyridines and a related imidazo[1,2-a]pyrazine” (1987).
# The source made the active and inactive calls. No cut-off for these calls is given here.
# Columns and labels:
# [1] = test system: Canis familiaris; assay: Inhibition of gastric acid secretion stimulated by histamine in dog was determined by peroral administration; IA means inactive; type: functional, organism-based; details: Canis lupus familiaris; Stomach
# [2] = test system: Rattus norvegicus; assay: Cytoprotective activity against ethyle alcohol induced ulcers was determined in rats by peroral administration; IA means inactive; type: functional, organism-based
# [3] = species on record: Mus musculus; assay: Organ weight ratio was determined for the compound :control
# [4] = test system: Mus musculus; assay: Organ weight (stomach) was determined after administration of the compound
# [5] = species on record: Mus musculus; assay: Histopathology of the stomach was determined; N means normal variation in the presence of the compound.
# [6] = species on record: Mus musculus; assay: Organ weight ratio was determined for the compound with respect to (8-Benzyloxy-2-methyl-imidazo[1,2-a]pyridin-3-yl) compound
# [7] = test system: Rattus norvegicus; assay: Cytoprotective activity against ethyle alcohol induced ulcers was determined in rats by peroral administration of the compound; type: functional; details: po
# [8] = test system: Canis familiaris; assay: Inhibition of gastric acid secretion stimulated by histamine in dog was determined by peroral administration; the regression was not significant; type: functional; details: Canis lupus familiaris, Stomach, po
# [9] = species on record: Mus musculus; assay: Histopathology of the stomach was determined as HGM (Hyperplasia of grandular mucosa)in the presence of the compound.
# [10] = test system: Canis familiaris; assay: Inhibition of gastric acid secretion stimulated by histamine in dog was determined by peroral administration of the compound; type: functional; details: Canis lupus familiaris, Stomach, po
# [11] = species on record: Mus musculus; assay: Histopathology of the stomach was determined as HGM (Hyperplasia of grandular mucosa) in the presence of the compound.
# [12] = test system: Canis familiaris; assay: Inhibition of gastric acid secretion stimulated by histamine in dog was determined by peroral administration; value ranges from 3.2-50.6; type: functional; details: Canis lupus familiaris, Stomach, po
# [13] = test system: Canis familiaris; assay: Inhibition of gastric acid secretion stimulated by histamine in dog was determined by peroral administration; IA means inactive oral dose of 8 mg/kg; type: functional, organism-based; set-up: dose 8 mg/kg; details: Canis lupus familiaris; Stomach
# [14] = test system: Canis familiaris; assay: Percent inhibition of Histamine -stimulated gastric acid secretion at the oral dosage of 4 mg/kg.; type: functional; details: Canis lupus familiaris, Stomach
# [15] = test system: Canis familiaris; assay: Percent inhibition of Histamine -stimulated gastric acid secretion at the oral dosage of 8 mg/kg.; type: functional; details: Canis lupus familiaris, Stomach
# [16] = test system: Canis familiaris; assay: Inhibition of gastric acid secretion stimulated by histamine in dog was determined by peroral administration; value ranges from 0.6-3.9; type: functional; details: Canis lupus familiaris, Stomach, po
# [17] = test system: Canis familiaris; assay: Inhibition of gastric acid secretion stimulated by histamine in dog was determined by peroral administration confidence limits (p=0.05.); value ranges from 2.1-14.0; type: functional; details: Canis lupus familiaris, Stomach, po
# [18] = test system: Canis familiaris; assay: Inhibition of gastric acid secretion stimulated by histamine in dog was determined by peroral administration; value ranges from 2.3-59.2; type: functional; details: Canis lupus familiaris, Stomach, po
# [19] = test system: Canis familiaris; assay: Percent inhibition of Histamine stimulated gastric acid secretion at oral dosage of 4 mg/kg; type: functional; details: Canis lupus familiaris, Stomach
# [20] = test system: Canis familiaris; assay: Percent inhibition of Histamine stimulated gastric acid secretion at oral dosage of 8 mg/kg; type: functional; details: Canis lupus familiaris, Stomach
SMILES,Organ weight ratio [3],Organ weight [4],Histopathology [5],Organ weight ratio [6],ED50 [7],Histopathology [9],other results
Cc1nc2c(O)cccn2c1CC#N,1,0.8 g,Within normal variation,0.7,,,ED50 [1]: inactive; ED50 [2]: inactive
Cc1cn2c(OCc3ccccc3)cccc2n1,0.9,0.76 g,Within normal variation,0.7,1 mg/kg,,ED50 [1]: inactive
Cc1nc2c(OCc3ccccc3)cccn2c1N,1.2,1.09 g,,1,6 mg/kg,Hyperplasia of glandular mucosa,ED50 [8]: 2 mg/kg
Cc1nc2c(OCc3ccsc3)cccn2c1CC#N,1.5,1.12 g,,1,2 mg/kg,,ED50 [10]: 2.7 mg/kg; Histopathology [11]: Hyperplasia of glandular mucosa
Cc1ccn2c(CC#N)c(C)nc2c1OCc1ccccc1,1.1,0.9 g,Within normal variation,0.8,13 mg/kg,,ED50 [12]: 7.1 mg/kg
Cc1nc2ccc(CCc3ccccc3)cn2c1CC#N,1,0.81 g,Within normal variation,0.7,2.7 mg/kg,,ED50 [13]: inactive
Cc1nc2c(CCc3ccccc3)cccn2c1CC#N,1.2,0.99 g,,0.9,7 mg/kg,Hyperplasia of glandular mucosa,inhibition in vivo at 4 mg/kg [14]: 3%; ED50 [10]: > 4.4 mg/kg; inhibition in vivo at 8 mg/kg [15]: 83%
Cc1nc2c(OCc3ccccc3)nccn2c1N,1.1,0.86 g,Within normal variation,0.8,5 mg/kg,,ED50 [16]: 1.4 mg/kg
Cc1nc2c(OCc3ccccc3)cccn2c1CC#N,1.4,1.13 g,,1,3 mg/kg,Hyperplasia of glandular mucosa,ED50 [17]: 4.4 mg/kg
Cc1nc2c(CCc3ccccc3)cccn2c1N,1.1,0.88 g,Within normal variation,0.8,9 mg/kg,,ED50 [18]: 6.8 mg/kg
Cc1nc2c(NCc3ccccc3)cccn2c1CC#N,1.2,0.9 g,,0.8,2 mg/kg,Hyperplasia of glandular mucosa,ED50 [10]: 6.7 mg/kg
Cc1cn2cccc(OCc3ccccc3)c2n1,1,0.84 g,Within normal variation,0.7,4 mg/kg,,ED50 [1]: inactive
Cc1nc2ccc(CCc3ccccc3)cn2c1N,1,0.81 g,Within normal variation,0.7,5.7 mg/kg,,ED50 [1]: inactive
Cc1c(CC#N)nc2c(OCc3ccccc3)cccn12,1.2,0.98 g,,0.9,,Hyperplasia of glandular mucosa,inhibition in vivo at 4 mg/kg [19]: 19%; inhibition in vivo at 8 mg/kg [20]: 91%; ED50 [10]: > 4.4 mg/kg; ED50 [2]: inactive
